From publication PMC12257540, “From Inhibitors to PET: SAR-Based Development of [^18F]SK60 for mIDH1 Imaging” (Journal of Medicinal Chemistry, 2025)
Values joined by “and” are separate entries in the source; they are usually repeats but may differ in a detail not shown here. Identical values can stand only once.

Tests used:
IDH1R132H = biological target: T1, IDH1R132H (Homo sapiens, UniProt O75874, R132H); experiment: Mutant IDH1 enzyme assay for determination of inhibitory potency (diaphorase/resazurin); assay type: biochemical; details: recombinant IDH1R132H, 30 min preincubation, 60 min reaction
T1 construct: purchased BPS Bioscience BPS-79376
T1 sequence (O75874 whole entry R132H): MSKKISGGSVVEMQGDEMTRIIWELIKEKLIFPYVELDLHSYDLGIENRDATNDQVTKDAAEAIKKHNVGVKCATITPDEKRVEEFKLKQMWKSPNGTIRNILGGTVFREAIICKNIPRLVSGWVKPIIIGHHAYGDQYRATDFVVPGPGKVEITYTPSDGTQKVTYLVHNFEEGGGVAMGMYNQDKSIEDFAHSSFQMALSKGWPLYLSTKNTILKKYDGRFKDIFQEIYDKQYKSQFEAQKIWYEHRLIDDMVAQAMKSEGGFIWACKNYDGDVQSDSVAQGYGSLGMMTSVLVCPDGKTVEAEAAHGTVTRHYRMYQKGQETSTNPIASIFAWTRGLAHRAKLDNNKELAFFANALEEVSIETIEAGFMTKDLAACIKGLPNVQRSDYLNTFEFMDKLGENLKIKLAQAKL
Description: Determination of the activity and inhibition of mutant IDH1 recombinant protein, IDH1R132H, is based on the reduction of α-KG acid to D-2-HG accompanied by a concomitant oxidation of NADPH to NADP. The amount of NADPH remaining at the end of the reaction time is measured in a secondary diaphorase/resazurin reaction, in which the NADPH is consumed in a 1/1 molar ratio with the conversion of resazurin to the highly fluorescent resorufin. For the determination of the inhibitory potential of ligands, the IDH1R132H Assay Kit (BPS-79376, BPS Bioscience, San Diego, CA) was used. […] For inhibition assays, triplicate samples of the ligands in the concentration range from 10^–5 M to 10^–10 M were incubated with the enzyme for 30 min before the addition of α-KG and NADPH to initiate the reaction. The reaction ran for 60 min at room temperature and was terminated with the addition of 25 μL of detection buffer (36 μg/mL diaphorase and […] resazurin) to 50 μL of the reaction solution. The conversion of resazurin to resorufin by diaphorase was measured fluorometrically at Ex544/Em590 (Synergy H1 microplate reader, BioTek, Winooski, VT). The data were imported into GraphPad Prism 4.1 (GraphPad Inc.; La Jolla; CA), and the IC50 values were calculated with a standard dose–response curve fitting (Figure S2, SI).

wtIDH1 = biological target: T2, wtIDH1 (Homo sapiens, UniProt O75874); experiment: IDH1 enzyme assay for determination of inhibitory potency (diaphorase/resazurin); assay type: biochemical; details: 1 h preincubation, 1 h reaction
T2 construct: purchased abcam ab113858
T2 sequence (O75874 whole entry): as the sequence (O75874 whole entry R132H) above, with H132R counted along it
Description: IDH1 enzyme assay is a modified version of the assay used for mIDH1. With the conversion of isocitrate to α-KG, this enzyme stoichiometrically converts NADP to NADPH. It produces NADPH, which directly couples to the diaphorase/resazurin system, and the resorufin production can be measured. The protocols for the determination of inhibition of IDH1 were performed as described by Wang et al. (2013). The IDH1 (ab113858) was purchased from abcam (Cambridge, UK).
Briefly, IDH1 assays were conducted in 50 μL buffer (20 mM TRIS buffer (pH = 7.5), 150 mM NaCl, 10 mM MgCl2, 0.05% BSA and 4 mM β-mercaptoethanol) containing 50 μM NADP, 70 μM DL-isocitrate, and 0.04 μg/mL IDH1 enzyme (reaction time 1 h at room temperature). For inhibition assays, triplicate samples of the ligands in the concentration range from 10^–4 M to 10^–10 M were incubated with the IDH1 for 1 h before the addition of DL-isocitrate and NADP to initiate the reaction together with the direct detection system comprised of 20 μg/mL diaphorase and 4 μM resazurin. The reaction was terminated with the addition of 25 μL of 2% SDS and read on a Synergy H1 microplate reader at Ex544/Em590. The data were imported into GraphPad Prism, and the IC50 values were calculated with a standard dose–response curve fitting (Figure S2, SI).

| Compound | IC50 (IDH1R132H) | IC50 (wtIDH1) |
| --- | --- | --- |
| CC1(C)CN(C(=O)c2ccc[nH]2)Cc2c(C(=O)Nc3ccccc3F)nn(Cc3ccc(F)cc3)c21 [Compound 27, 1-(4-fluorobenzyl)-N-(2-fluorophenyl)-7,7-dimethyl-5-(1H-pyrrole-2-carbonyl)-4,5,6,7-tetrahydro-1H-pyrazolo[4,3-c]pyridine-3-carboxamide] | 0.196 µM |  |
| CC1(C)CN(C(=O)c2ccc[nH]2)Cc2c(C(=O)NC3CCCC3)nn(Cc3ccc(F)cc3)c21 [Compound 36] | 5.9 µM | > 10 µM |
| CC1(C)CN(C(=O)c2ccc[nH]2)Cc2c(C(=O)NC34CC5CC(CC(C5)C3)C4)nn(Cc3ccc(F)cc3)c21 [Compound 33] | 0.163 ± 0.0396 µM | > 10 µM |
| Cc1cccc(NC(=O)c2nn(Cc3ccc(F)cc3)c3c2CN(C(=O)C(C)(C)CF)CC3(C)C)c1 [Compound 60, 5-(3-fluoro-2,2-dimethylpropanoyl)-1-(4-fluorobenzyl)-7,7-dimethyl-N-(m-tolyl)-4,5,6,7-tetrahydro-1H-pyrazolo[4,3-c]pyridine-3-carboxamide] | 1.3 µM |  |
| CN(C)C(=O)c1nn(Cc2ccc(F)cc2)c2c1CN(C(=O)c1ccc[nH]1)CC2(C)C [Compound 41] | > 10 µM | > 10 µM |
| CC1(C)CN(C(=O)c2ccc[nH]2)Cc2c(C(N)=O)nn(Cc3ccc(F)cc3)c21 [Compound 42] | 5.02 µM | > 10 µM |
| Cc1cccc(NC(=O)c2nn(CCCCF)c3c2CN(C(=O)c2ccc[nH]2)CC3(C)C)c1 [Compound 47, 1-(4-fluorobutyl)-7,7-dimethyl-5-(1H-pyrrole-2-carbonyl)-N-(m-tolyl)-4,5,6,7-tetrahydro-1H-pyrazolo[4,3-c]pyridine-3-carboxamide] | 0.571 µM | > 10 µM |
| CC1(C)CN(C(=O)c2ccc[nH]2)Cc2c(C(=O)N3CCCCC3)nn(Cc3ccc(F)cc3)c21 [Compound 35] | > 1 µM | > 10 µM |
| CC1(C)CN(C(=O)c2ccc[nH]2)Cc2c(C(=O)Nc3ccccc3)nn(Cc3ccc(F)cc3)c21 [Compound 23, 1-(4-fluorobenzyl)-7,7-dimethyl-N-phenyl-5-(1H-pyrrole-2-carbonyl)-4,5,6,7-tetrahydro-1H-pyrazolo[4,3-c]pyridine-3-carboxamide] | 0.0247 µM and 0.064 µM | > 10 µM |
| CCCOCCNC(=O)c1nn(Cc2ccc(F)cc2)c2c1CN(C(=O)c1ccc[nH]1)CC2(C)C [Compound 39] | > 5 µM | > 10 µM |
| CC1(C)CN(C(=O)c2ccc[nH]2)Cc2c(C(=O)Nc3cccnc3)nn(Cc3ccc(F)cc3)c21 [Compound 30, 1-(4-fluorobenzyl)-7,7-dimethyl-N-(pyridin-3-yl)-5-(1H-pyrrole-2-carbonyl)-4,5,6,7-tetrahydro-1H-pyrazolo[4,3-c]pyridine-3-carboxamide] | 0.631 µM and 0.648 µM | > 10 µM |
| CC1(C)CN(C(=O)c2ccc[nH]2)Cc2c(C(=O)N3CCOCC3)nn(Cc3ccc(F)cc3)c21 [Compound 37] | > 10 µM | > 10 µM |
